Experimental data from patent US20250115571A1, “OXOPIPERAZINE DERIVATIVES” (Inthera Bioscience AG, priority 2017, published 2025).

How the values were obtained:
Assay in all cases: 5-day cell proliferation assay (CTG)
Type in all cases: cell-based
[1] = test system: Daudi; conditions: Homo sapiens, 120 h, Lymphoma
Protocol: (§1) For screening using a proliferation assay, the cells used were cultured at 37° C. with 5% CO2, except for those being cultured with L-15 medium (37° C. and 100% air, TABLE 7). Compound stock solutions (10 mM) were made in sterile water, aliquoted and stored at room temperature. Cisplatin was used as reference Control. Plastic consumables, culture media and supplements were purchased from well-known suppliers (TABLE 8).
(§2) Cell seeding (day −1). When necessary, cells were trypsinized using standard methods (see e.g. example 01). Cells were collected and resuspended in 5-6 mL of appropriate culture medium, counted and diluted to the needed density. Fifty-four μl (microliter) cells were seeded per well in a 384-well plate. Extra four wells per cell line were seeded on an additional plate for Day 0 reading (baseline cell density). Cells were incubated at 37° C. overnight.
(§3) Compound treatment and Day 0 reading (day 0). Tenfold final concentration of test compounds and Cisplatin were prepared in cell culture media (work dilutions). Six μl of work dilution solutions were dispensed into the corresponding wells in 384-well plates to bring the total volume up to 60 μl. Conditions were tested in triplicate. The plates were then incubated at 37° C. for five days. For the day 0 reading, 30 μl of CTG and 6 μl cell culture medium were added to the day 0 plates, contents mixed for 2 min on a plate shaker, and the plates incubated for 10 min at room temperature in the dark. Luminescence was recorded on an EnVision Multi Label Reader (2104-0010A, PerkinElmer, USA).
(§4) Endpoint CTG reading (day 5). The amounts of cells in the plates was determined by endpoint CTG-test. Thirty μl of CTG were added to the 60 μl of cell culture per well, contents mixed for 2 min on a plate shaker, and the plates incubated for 10 min at room temperature in the dark. Luminescence was recorded on an EnVision Multi Label Reader.
(§5) Data analysis. Fifty percent growth inhibition concentrations (GI50) were calculated based on percentage of control data (untreated cells) from each cell line (TABLE 5 (this example) and TABLE 6). Curves were fitted using a nonlinear regression model with a sigmoidal dose response. Examples of obtained curves are depicted in FIG. 2A-2F.

[2] = test system: Raji; conditions: Homo sapiens, 120 h, Lymphoma
Protocol: as §1, §2, §3, §4, §5

[3] = test system: HCC2935; conditions: Homo sapiens, 120 h, HCC2935, Lung, highest tested concentration 10 μM
Protocol: as §1, §2, §3, §4, §5

[4] = test system: Jurkat; conditions: Homo sapiens, 120 h, Leukemia
Protocol: as §1, §2, §3, §4, §5

[5] = test system: SK-MEL28; conditions: Homo sapiens, SK-MEL-28, 120 h, SK-MEL28, Skin
Protocol: as §1, §2, §3, §4, §5

[6] = test system: BT474; conditions: Homo sapiens, BT-474, 120 h, BT474, Breast
Protocol: as §1, §2, §3, §4, §5

[7] = test system: DoTc2 4510; conditions: Homo sapiens, 120 h, DoTc2 4510, Cervix
Protocol: as §1, §2, §3, §4, §5

[8] = test system: Kasumi-1; conditions: Homo sapiens, 120 h, Kasumi-1, Leukemia
Protocol: as §1, §2, §3, §4, §5

[9] = test system: HEP-3B; conditions: Homo sapiens, Hep3B, 120 h, Liver
Protocol: as §1, §2, §3, §4, §5

[10] = test system: HUH-7; conditions: Homo sapiens, 120 h, HUH-7, Liver
Protocol: as §1, §2, §3, §4, §5

[11] = test system: A549; conditions: Homo sapiens, 120 h, A549, Lung
Protocol: as §1, §2, §3, §4, §5

[12] = test system: KARPAS-299; conditions: Homo sapiens, 120 h, KARPAS-299, Lymphoma
Protocol: as §1, §2, §3, §4, §5

[13] = test system: MOLT-4; conditions: Homo sapiens, 120 h, MOLT-4, Leukemia
Protocol: as §1, §2, §3, §4, §5

[14] = test system: OVCAR-4; conditions: Homo sapiens, 120 h, OVCAR-4, Ovary
Protocol: as §1, §2, §3, §4, §5

[15] = test system: HL-60; conditions: Homo sapiens, 120 h, HL-60, Leukemia
Protocol: as §1, §2, §3, §4, §5

[16] = test system: VCAP; conditions: Homo sapiens, 120 h, Prostate
Protocol: as §1, §2, §3, §4, §5

[17] = test system: AU565; conditions: Homo sapiens, 120 h, AU565, Breast
Protocol: as §1, §2, §3, §4, §5

[18] = test system: WM-266-4; conditions: Homo sapiens, 120 h, WM-266-4, Skin
Protocol: as §1, §2, §3, §4, §5

[19] = test system: OVCAR-3; conditions: Homo sapiens, 120 h, OVCAR-3, Ovary
Protocol: as §1, §2, §3, §4, §5

[20] = test system: DU145; conditions: Homo sapiens, DU-145, 120 h, DU145, Prostate
Protocol: as §1, §2, §3, §4, §5

[21] = test system: 22RV1; conditions: Homo sapiens, 120 h, 22RV1, Prostate
Protocol: as §1, §2, §3, §4, §5

[22] = test system: KYSE-270; conditions: Homo sapiens, 120 h, KYSE-270, Oesophagus
Protocol: as §1, §2, §3, §4, §5

[23] = test system: PANC-1; conditions: Homo sapiens, 120 h, PANC-1, Pancreas
Protocol: as §1, §2, §3, §4, §5

[24] = test system: HT-3; conditions: Homo sapiens, 120 h, HT-3, Cervix
Protocol: as §1, §2, §3, §4, §5

[25] = test system: A375; conditions: Homo sapiens, A-375, 120 h, A375, Skin
Protocol: as §1, §2, §3, §4, §5

[26] = test system: K562; conditions: Homo sapiens, 120 h, K562, Leukemia
Protocol: as §1, §2, §3, §4, §5

[27] = test system: MIA PaCa-2; conditions: Homo sapiens, 120 h, MIA PaCa-2, Pancreas
Protocol: as §1, §2, §3, §4, §5

[28] = test system: H460; conditions: Homo sapiens, NCI-H460, 120 h, H460, Lung
Protocol: as §1, §2, §3, §4, §5

[29] = test system: U937; conditions: Homo sapiens, U-937, 120 h, U937, Leukemia
Protocol: as §1, §2, §3, §4, §5

Molecule `CC(C)C[C@@H]1NCCN([C@@H](CC(C)C)C(=O)N2CCC3(C[C@@H]2C)OCC(CN2CCCC2)CO3)C1=O` (stereo partly drawn) [Compound 258, (3S)-1-[(2S)-4-methyl-1-oxo-1-[(3s,6s,8S)-8-methyl-3-(pyrrolidin-1-ylmethyl)-1,5-dioxa-9-azaspiro[5.5]undec-an-9-yl]pentan-2-yl]-3-(2-methylpropyl)piper-azin-2-one (^≠), isomer Z] has a GI50 [1] of 80 nM, a GI50 [2] of 28 nM and a GI50 [3] greater than 10000 nM. For the same molecule, the GI50 [4] was 18 nM, the GI50 [5] was 50 nM and the GI50 [6] was 72 nM. It also gave a GI50 [7] of 14 nM, a GI50 [8] of 19 nM and a GI50 [9] of 23 nM. The GI50 [10] was 10 nM, the GI50 [11] was 10 nM and the GI50 [12] was 5 nM. It also gave a GI50 [13] of 9 nM, a GI50 [14] of 12 nM and a GI50 [15] of 5 nM. The GI50 [16] was 128 nM, the GI50 [17] was 3 nM and the GI50 [18] was 41 nM. It also gave a GI50 [19] of 44 nM, a GI50 [20] of 7 nM and a GI50 [21] of 9 nM. The GI50 [22] was 44 nM, the GI50 [23] was 22 nM and the GI50 [24] was 330 nM. It also gave a GI50 [25] of 6 nM, a GI50 [26] of 17 nM and a GI50 [27] of 11 nM. For the same molecule, the GI50 [28] was 11 nM and the GI50 [29] was 22 nM.
